Experimental data published in PubChem BioAssay AID228 (DTP/NCI, 2004).
Several values for one entry are separate records, joined by “and”; a condition that tells them apart may be missing. Equal values may be shown once. Results filed as inconclusive are left out.

Test system: BDF1 mice, Friend leukemia sc, tumor weight T/C
Assay: NCI In Vivo Anticancer Drug Screen. Data for tumor model Friend Virus Leukemia (Solid) (subcutaneous) in B6D2F1 (BDF1) mice
Settings: endpoint: mean tumor weight, schedule: Q01DX011 (ip), higher = larger tumour
Procedure: The antitumor activity of compounds was measured in mice bearing transplantable tumors. Survival or tumor size were measured and the results are expressed as the measurement made in the treated group (T) divided by the measurement made in the vehicle treated control group (C). The tumor model used in this assay is Friend Virus Leukemia (Solid) (subcutaneous) in B6D2F1 (BDF1) mice

Cc1nc(N2CC2)nc(N2CC2)c1[N+](=O)[O-]
T/C (dose: 2.0 mg/kg/injection, vehicle: carboxymethylcellulose (CMC)): 70 % of control | T/C (dose: 3.0 mg/kg/injection, vehicle: carboxymethylcellulose (CMC)): 39 % of control | T/C (dose: 4.0 mg/kg/injection, vehicle: carboxymethylcellulose (CMC)): 41 % of control | T/C (dose: 6.0 mg/kg/injection, vehicle: carboxymethylcellulose (CMC)): 63 % of control and 40 % of control

CN(N=O)C(=O)Nc1c[nH]c(=O)[nH]c1=O
T/C (dose: 5.0 mg/kg/injection, vehicle: carboxymethylcellulose (CMC)): 108 % of control | T/C (dose: 10.0 mg/kg/injection, vehicle: carboxymethylcellulose (CMC)): 93 % of control | T/C (dose: 20.0 mg/kg/injection, vehicle: carboxymethylcellulose (CMC)): 91 % of control | T/C (dose: 40.0 mg/kg/injection, vehicle: carboxymethylcellulose (CMC)): 39 % of control | T/C (dose: 60.0 mg/kg/injection, vehicle: carboxymethylcellulose (CMC)): 45 % of control | T/C (dose: 80.0 mg/kg/injection, vehicle: carboxymethylcellulose (CMC)): 23 % of control

CC(/C=N/N=C(N)N)=N/N=C(N)N
T/C (dose: 50.0 mg/kg/injection, vehicle: saline): 124 % of control
